Measurements taken from the NIST ThermoML archive (doi:10.1021/je300692s).
Numbers after ± are expanded uncertainties.

Assay: activity coefficient (dimensionless); of the first substance listed, at infinite dilution; xn = mol fraction of the nth substance listed
Details: 101 kPa, Liquid, Chromatography, x1 = 0

SMILES | activity coefficient (322.6 K) | activity coefficient (332.5 K) | activity coefficient (342.8 K) | activity coefficient (323 K) | activity coefficient (333 K) | activity coefficient (343.1 K) | activity coefficient (322.9 K)
CCCCCCCCCC [decane] + CCCCCCCCCC[N+]1(C)CCCC1.O=S(=O)([N-]S(=O)(=O)C(F)(F)F)C(F)(F)F | 9.42 ± 0.99 | 9.05 ± 0.95 | 8.7 ± 0.91 | – | – | – | –
CCCCCCCCCC [decane] + CCCCCCCC[N+]1(C)CCCC1.O=S(=O)([N-]S(=O)(=O)C(F)(F)F)C(F)(F)F | – | – | – | 14.8 ± 0.88 | 12.5 ± 0.75 | 11 ± 0.66 | –
CCCCCCCCCC [decane] + CCCCCC[N+]1(C)CCCC1.O=S(=O)([N-]S(=O)(=O)C(F)(F)F)C(F)(F)F | – | – | – | – | 19 ± 2 | 22.7 ± 2.4 | 26 ± 2.7
ClCCl [dichloromethane] + CCCCCCCCCC[N+]1(C)CCCC1.O=S(=O)([N-]S(=O)(=O)C(F)(F)F)C(F)(F)F | 0.27 ± 0.04 | 0.3 ± 0.04 | 0.3 ± 0.04 | – | – | – | –
ClCCl [dichloromethane] + CCCCCCCC[N+]1(C)CCCC1.O=S(=O)([N-]S(=O)(=O)C(F)(F)F)C(F)(F)F | – | – | – | 0.26 ± 0.04 | 0.27 ± 0.04 | 0.28 ± 0.04 | –
ClCCl [dichloromethane] + CCCCCC[N+]1(C)CCCC1.O=S(=O)([N-]S(=O)(=O)C(F)(F)F)C(F)(F)F | – | – | – | – | 0.36 ± 0.04 | 0.35 ± 0.04 | 0.31 ± 0.04
CCOCC [diethyl ether] + CCCCCCCCCC[N+]1(C)CCCC1.O=S(=O)([N-]S(=O)(=O)C(F)(F)F)C(F)(F)F | 1.27 ± 0.13 | 1.25 ± 0.13 | 1.25 ± 0.13 | – | – | – | –
CCOCC [diethyl ether] + CCCCCCCC[N+]1(C)CCCC1.O=S(=O)([N-]S(=O)(=O)C(F)(F)F)C(F)(F)F | – | – | – | 1.34 ± 0.14 | 1.34 ± 0.14 | 1.14 ± 0.12 | –
CCOCC [diethyl ether] + CCCCCC[N+]1(C)CCCC1.O=S(=O)([N-]S(=O)(=O)C(F)(F)F)C(F)(F)F | – | – | – | – | 1.76 ± 0.18 | 1.76 ± 0.18 | 1.56 ± 0.16
CC(C)OC(C)C [diisopropyl ether] + CCCCCCCCCC[N+]1(C)CCCC1.O=S(=O)([N-]S(=O)(=O)C(F)(F)F)C(F)(F)F | 2.29 ± 0.24 | 2.28 ± 0.24 | 2.26 ± 0.24 | – | – | – | –
CC(C)OC(C)C [diisopropyl ether] + CCCCCCCC[N+]1(C)CCCC1.O=S(=O)([N-]S(=O)(=O)C(F)(F)F)C(F)(F)F | – | – | – | 2.57 ± 0.27 | 2.58 ± 0.27 | 2.26 ± 0.24 | –
CC(C)OC(C)C [diisopropyl ether] + CCCCCC[N+]1(C)CCCC1.O=S(=O)([N-]S(=O)(=O)C(F)(F)F)C(F)(F)F | – | – | – | – | 3.56 ± 0.37 | 3.53 ± 0.37 | 3.18 ± 0.33
CCO [ethanol] + CCCCCCCCCC[N+]1(C)CCCC1.O=S(=O)([N-]S(=O)(=O)C(F)(F)F)C(F)(F)F | 1.46 ± 0.15 | 1.34 ± 0.14 | 1.22 ± 0.13 | – | – | – | –
CCO [ethanol] + CCCCCCCC[N+]1(C)CCCC1.O=S(=O)([N-]S(=O)(=O)C(F)(F)F)C(F)(F)F | – | – | – | 1.33 ± 0.14 | 1.26 ± 0.13 | 0.98 ± 0.1 | –
CCO [ethanol] + CCCCCC[N+]1(C)CCCC1.O=S(=O)([N-]S(=O)(=O)C(F)(F)F)C(F)(F)F | – | – | – | – | 1.4 ± 0.14 | 1.31 ± 0.13 | 1.41 ± 0.15
CCc1ccccc1 [ethylbenzene] + CCCCCCCCCC[N+]1(C)CCCC1.O=S(=O)([N-]S(=O)(=O)C(F)(F)F)C(F)(F)F | 1.01 ± 0.05 | 1.04 ± 0.06 | 1.06 ± 0.06 | – | – | – | –
CCc1ccccc1 [ethylbenzene] + CCCCCCCC[N+]1(C)CCCC1.O=S(=O)([N-]S(=O)(=O)C(F)(F)F)C(F)(F)F | – | – | – | 1.03 ± 0.1 | 0.98 ± 0.1 | 1.04 ± 0.11 | –
CCc1ccccc1 [ethylbenzene] + CCCCCC[N+]1(C)CCCC1.O=S(=O)([N-]S(=O)(=O)C(F)(F)F)C(F)(F)F | – | – | – | – | 1.43 ± 0.15 | 1.46 ± 0.15 | 1.38 ± 0.14
CCCCCCC [heptane] + CCCCCCCCCC[N+]1(C)CCCC1.O=S(=O)([N-]S(=O)(=O)C(F)(F)F)C(F)(F)F | 4.91 ± 0.52 | 4.75 ± 0.5 | 4.62 ± 0.49 | – | – | – | –
CCCCCCC [heptane] + CCCCCCCC[N+]1(C)CCCC1.O=S(=O)([N-]S(=O)(=O)C(F)(F)F)C(F)(F)F | – | – | – | 6.4 ± 0.67 | 6.06 ± 0.64 | 5.13 ± 0.54 | –
CCCCCCC [heptane] + CCCCCC[N+]1(C)CCCC1.O=S(=O)([N-]S(=O)(=O)C(F)(F)F)C(F)(F)F | – | – | – | – | 9.43 ± 0.99 | 9.58 ± 1 | 10.6 ± 1.1
C=CCCCC [hex-1-ene] + CCCCCCCCCC[N+]1(C)CCCC1.O=S(=O)([N-]S(=O)(=O)C(F)(F)F)C(F)(F)F | 2.68 ± 0.28 | 2.62 ± 0.28 | 2.57 ± 0.27 | – | – | – | –
C=CCCCC [hex-1-ene] + CCCCCCCC[N+]1(C)CCCC1.O=S(=O)([N-]S(=O)(=O)C(F)(F)F)C(F)(F)F | – | – | – | 3.17 ± 0.33 | 3.02 ± 0.32 | 2.58 ± 0.27 | –

SMILES | activity coefficient (322.6 K) | activity coefficient (332.5 K) | activity coefficient (342.8 K) | activity coefficient (323 K) | activity coefficient (333 K) | activity coefficient (343.1 K) | activity coefficient (322.9 K)
C=CCCCC [hex-1-ene] + CCCCCC[N+]1(C)CCCC1.O=S(=O)([N-]S(=O)(=O)C(F)(F)F)C(F)(F)F | – | – | – | – | 4.63 ± 0.49 | 4.44 ± 0.47 | 4.56 ± 0.48
CCCCCC [hexane] + CCCCCCCCCC[N+]1(C)CCCC1.O=S(=O)([N-]S(=O)(=O)C(F)(F)F)C(F)(F)F | 3.97 ± 0.42 | 3.78 ± 0.4 | 3.68 ± 0.39 | – | – | – | –
CCCCCC [hexane] + CCCCCCCC[N+]1(C)CCCC1.O=S(=O)([N-]S(=O)(=O)C(F)(F)F)C(F)(F)F | – | – | – | 5.01 ± 0.53 | 4.8 ± 0.5 | 4.05 ± 0.43 | –
CCCCCC [hexane] + CCCCCC[N+]1(C)CCCC1.O=S(=O)([N-]S(=O)(=O)C(F)(F)F)C(F)(F)F | – | – | – | – | 7.38 ± 0.78 | 7.11 ± 0.75 | 7.74 ± 0.81
CO [methanol] + CCCCCCCCCC[N+]1(C)CCCC1.O=S(=O)([N-]S(=O)(=O)C(F)(F)F)C(F)(F)F | 1.61 ± 0.17 | 1.32 ± 0.14 | 1.36 ± 0.14 | – | – | – | –
CO [methanol] + CCCCCCCC[N+]1(C)CCCC1.O=S(=O)([N-]S(=O)(=O)C(F)(F)F)C(F)(F)F | – | – | – | 0.97 ± 0.1 | 1.09 ± 0.11 | 0.71 ± 0.07 | –
CO [methanol] + CCCCCC[N+]1(C)CCCC1.O=S(=O)([N-]S(=O)(=O)C(F)(F)F)C(F)(F)F | – | – | – | – | 1.77 ± 0.18 | 0.95 ± 0.1 | 0.94 ± 0.1
CC1CCCCC1 [methylcyclohexane] + CCCCCCCCCC[N+]1(C)CCCC1.O=S(=O)([N-]S(=O)(=O)C(F)(F)F)C(F)(F)F | 3.38 ± 0.36 | 3.28 ± 0.34 | 3.15 ± 0.33 | – | – | – | –
CC1CCCCC1 [methylcyclohexane] + CCCCCCCC[N+]1(C)CCCC1.O=S(=O)([N-]S(=O)(=O)C(F)(F)F)C(F)(F)F | – | – | – | 4.22 ± 0.44 | 4.04 ± 0.42 | 3.9 ± 0.41 | –
CC1CCCCC1 [methylcyclohexane] + CCCCCC[N+]1(C)CCCC1.O=S(=O)([N-]S(=O)(=O)C(F)(F)F)C(F)(F)F | – | – | – | – | 6.07 ± 0.64 | 6.03 ± 0.63 | 6.57 ± 0.69
CC1CCCC1 [methylcyclopentane] + CCCCCCCCCC[N+]1(C)CCCC1.O=S(=O)([N-]S(=O)(=O)C(F)(F)F)C(F)(F)F | 2.9 ± 0.3 | 2.76 ± 0.29 | 2.66 ± 0.28 | – | – | – | –
CC1CCCC1 [methylcyclopentane] + CCCCCCCC[N+]1(C)CCCC1.O=S(=O)([N-]S(=O)(=O)C(F)(F)F)C(F)(F)F | – | – | – | 3.13 ± 0.33 | 3.36 ± 0.35 | 2.84 ± 0.3 | –
CC1CCCC1 [methylcyclopentane] + CCCCCC[N+]1(C)CCCC1.O=S(=O)([N-]S(=O)(=O)C(F)(F)F)C(F)(F)F | – | – | – | – | 4.52 ± 0.47 | 4.76 ± 0.5 | 4.9 ± 0.51
C[N+](=O)[O-] [nitromethane] + CCCCCCCCCC[N+]1(C)CCCC1.O=S(=O)([N-]S(=O)(=O)C(F)(F)F)C(F)(F)F | 0.63 ± 0.07 | 0.62 ± 0.07 | 0.6 ± 0.06 | – | – | – | –
C[N+](=O)[O-] [nitromethane] + CCCCCCCC[N+]1(C)CCCC1.O=S(=O)([N-]S(=O)(=O)C(F)(F)F)C(F)(F)F | – | – | – | 0.54 ± 0.06 | 0.51 ± 0.06 | 0.48 ± 0.05 | –
C[N+](=O)[O-] [nitromethane] + CCCCCC[N+]1(C)CCCC1.O=S(=O)([N-]S(=O)(=O)C(F)(F)F)C(F)(F)F | – | – | – | – | 0.57 ± 0.06 | 0.56 ± 0.06 | 0.57 ± 0.06
CCCCCCCCC [nonane] + CCCCCCCCCC[N+]1(C)CCCC1.O=S(=O)([N-]S(=O)(=O)C(F)(F)F)C(F)(F)F | 8.32 ± 0.87 | 8.01 ± 0.84 | 7.65 ± 0.8 | – | – | – | –
CCCCCCCCC [nonane] + CCCCCCCC[N+]1(C)CCCC1.O=S(=O)([N-]S(=O)(=O)C(F)(F)F)C(F)(F)F | – | – | – | 11.3 ± 0.67 | 10.7 ± 0.64 | 9.14 ± 0.55 | –
CCCCCCCCC [nonane] + CCCCCC[N+]1(C)CCCC1.O=S(=O)([N-]S(=O)(=O)C(F)(F)F)C(F)(F)F | – | – | – | – | 18.2 ± 1.9 | 18.5 ± 1.9 | 21.1 ± 2.2
CCCCCCCC [octane] + CCCCCCCCCC[N+]1(C)CCCC1.O=S(=O)([N-]S(=O)(=O)C(F)(F)F)C(F)(F)F | 6.13 ± 0.64 | 5.92 ± 0.62 | 5.76 ± 0.61 | – | – | – | –
CCCCCCCC [octane] + CCCCCCCC[N+]1(C)CCCC1.O=S(=O)([N-]S(=O)(=O)C(F)(F)F)C(F)(F)F | – | – | – | 8.1 ± 0.85 | 7.8 ± 0.82 | 6.54 ± 0.69 | –
CCCCCCCC [octane] + CCCCCC[N+]1(C)CCCC1.O=S(=O)([N-]S(=O)(=O)C(F)(F)F)C(F)(F)F | – | – | – | – | 13.4 ± 1.4 | 12.9 ± 1.4 | 14.2 ± 1.5
